The record followed here is US8492395B2, “7-substituted quinazolinone compounds and compositions comprising the same” (Celgene Corporation, priority 2007, dated 2013).

The subject of one data set is Namalwa AG4 cells. Nature of the data set: Cell proliferation assay (3H-thymidine incorporation). In kind it is cell-based. Particulars: one collective range stated for the tested compounds, read-out: IC50 values for inhibiting proliferation of Namalwa AG4 cells. As to the method:
5.48.3 Cell Proliferation Assay
Cell lines Namalwa, MUTZ-5, and UT-7 are obtained from the Deutsche Sammlung von Mikroorganismen und Zellkulturen GmbH (Braunschweig, Germany). The cell line KG-1 is obtained from the American Type Culture Collection (Manassas, Va., USA). Cell proliferation as indicated by ^3H-thymidine incorporation is measured in all cell lines as follows.
Cells are plated in 96-well plates at 6000 cells per well in media. The cells are pre-treated with compounds at about 100, 10, 1, 0.1, 0.01, 0.001, 0.0001 and 0 μM in a final concentration of about 0.25% DMSO in triplicate at 37° C. in a humidified incubator at 5% CO2 for 72 hours. One microcurie of 3H-thymidine (Amersham) is then added to each well, and cells are incubated again at 37° C. in a humidified incubator at 5% CO2 for 6 hours. The cells are harvested onto UniFilter GF/C filter plates (Perkin Elmer) using a cell harvester (Tomtec), and the plates are allowed to dry overnight. Microscint 20 (Packard) (25 μl/well) is added, and plates are analyzed in TopCount NXT (Packard). Each well is counted for one minute. Percent inhibition of cell proliferation is calculated by averaging all triplicates and normalizing to the DMSO control (0% inhibition). Each compound is tested in each cell line in three separate experiments. Final IC50s are calculated using non-linear regression, sigmoidal dose-response, constraining the top to 100% and bottom to 0%, allowing variable slope. (GraphPad Prism v3.02).
Abilities of certain compounds for inhibiting proliferation of Namalwa AG4 cells were determined using procedures substantially similar to those described in Section 5.48.3, above.
Background: Uptake of a labelled nucleoside into DNA is a usual measure of proliferation.

In general, melting point refers to the temperature, or range, at which the solid turns liquid. Turning to `Cc1nc2c(Br)cccc2c(=O)n1C1CCC(=O)NC1=O` (stereo not drawn) [3-(8-bromo-2-methyl-4-oxo-4H-quinazolin-3-yl)-piperidine-2,6-dione], the melting point is 307 to 309 °C.
As to `Cc1ccc2c(=O)n(C3CCC(=O)NC3=O)cnc2c1` (stereo not drawn) [Example 5.34, 3-(7-methyl-4-oxo-4H-quinazolin-3-yl)-piperidine-2,6-dione], the melting point lay within 313 to 315 °C.
Take `Cc1ccc2ncn(C3CCC(=O)NC3=O)c(=O)c2c1` (stereo not drawn) [Example 5.9, 3-(6-methyl-4-oxo-4H-quinazolin-3-yl)-piperidine-2,6-dione]: the melting point was 285 to 287 °C.
For the compound `Cc1nc2ccc(CNC(=O)c3cccc(C(F)(F)F)c3)cc2c(=O)n1C1CCC(=O)NC1=O` (stereo not drawn) [N-[3-(2,6-dioxo-piperidin-3-yl)-2-methyl-4-oxo-3,4-dihydro-quinazolin-6-ylmethyl]-3-trifluoromethyl-benzamide], the melting point lay in the range of 220 to 222 °C. In addition, the IC50 in the data set with Namalwa AG4 cells fell in the range of 10 to 5500 nM.
For `O=C1CCC(n2cnc3ccc(Cl)cc3c2=O)C(=O)N1` (stereo not drawn) [Example 5.7, 3-(6-chloro-4-oxo-4H-quinazolin-3-yl)-piperidine-2,6-dione], the melting point was 302 to 305 °C.
For `Cc1nc2cc(CN)ccc2c(=O)n1C1CCC(=O)NC1=O.Cl` (stereo not drawn), the melting point was 313 to 315 °C.
`Cc1nc2ccc(CNC(=O)Cc3ccc(Cl)cc3)cc2c(=O)n1C1CCC(=O)NC1=O` (stereo not drawn) [2-(4-chloro-phenyl)-N-[3-(2,6-dioxo-piperidin-3-yl)-2-methyl-4-oxo-3,4-dihydro-quinazolin-6-ylmethyl]-acetamide] had a melting point of 229.5 to 231.5 °C. The IC50 in the data set with Namalwa AG4 cells was 10 to 5500 nM.
The like results for `Cc1cccc(NC(=O)NCc2ccc3nc(C)n(C4CCC(=O)NC4=O)c(=O)c3c2)c1` (stereo not drawn) [1-[3-(2,6-dioxo-piperidin-3-yl)-2-methyl-4-oxo-3,4-dihydro-quinazolin-6-ylmethyl]-3-m-tolyl-urea] were, in that order, 200 to 202 °C and 10 to 5500 nM.
Compound `Cc1nc2ccc(CNC(=O)C3CC3)cc2c(=O)n1C1CCC(=O)NC1=O` (stereo not drawn) [cyclopropanecarboxylic acid [3-(2,6-dioxo-piperidin-3-yl)-2-methyl-4-oxo-3,4-dihydro-quinazolin-6-ylmethyl]-amide] had a melting point of 281 to 283 °C.
Same read-out and setting: the result for `Cc1nc2ccc(CN)cc2c(=O)n1C1CCC(=O)NC1=O.Cl` (stereo not drawn) reads 299 to 301 °C.
`Cc1nc2ccc(F)cc2c(=O)n1C1CCC(=O)NC1=O` (stereo not drawn) [Example 5.3, 3-(6-fluoro-2-methyl-4-oxo-4H-quinazolin-3-yl)-piperidine-2,6-dione] showed a melting point of 273 to 275 °C.
Regarding `Cc1nc2ccc(CNC(=O)N(C)C)cc2c(=O)n1C1CCC(=O)NC1=O` (stereo not drawn) [Example 5.15, 3-[3-(2,6-dioxo-piperidin-3-yl)-2-methyl-4-oxo-3,4-dihydro-quinazolin-6-ylmethyl]-1,1-dimethyl-urea], the melting point was 264 to 268 °C.
In the case of `Cc1nc2ccc(CNC(=O)Nc3ccc(Cl)cc3)cc2c(=O)n1C1CCC(=O)NC1=O` (stereo not drawn) [1-(4-chloro-phenyl)-3-[3-(2,6-dioxo-piperidin-3-yl)-2-methyl-4-oxo-3,4-dihydro-quinazolin-6-ylmethyl]-urea], the melting point was in the range of 225 to 227 °C. Further, in the data set with Namalwa AG4 cells, the IC50 lay in the range of 10 to 5500 nM.
`Cc1nc2ccc(CNC(=O)c3ccc(Cl)cc3)cc2c(=O)n1C1CCC(=O)NC1=O` (stereo not drawn) [4-chloro-N-[3-(2,6-dioxo-piperidin-3-yl)-2-methyl-4-oxo-3,4-dihydro-quinazolin-6-ylmethyl]-benzamide] came in with a melting point of 267 to 269 °C.
Still for that read-out and setting: the figure for `Cc1nc2ccc(CNC(=O)OC(C)(C)C)cc2c(=O)n1C1CCC(=O)NC1=O` (stereo not drawn) [Example 5.11, [3-(2,6-dioxo-piperidin-3-yl)-2-methyl-4-oxo-3,4-dihydro-quinazolin-6-ylmethyl]-carbamic acid tert-butyl ester] is 212.5 to 214.5 °C; for `Cc1nc2cc(CNC(=O)OC(C)(C)C)ccc2c(=O)n1C1CCC(=O)NC1=O` (stereo not drawn) [Example 5.36, [3-(2,6-dioxo-piperidin-3-yl)-2-methyl-4-oxo-3,4-dihydro-quinazolin-7-ylmethyl]-carbamic acid tert-butyl ester] it is 240 to 242 °C; for `Cc1nc2c(C(F)(F)F)cccc2c(=O)n1C1CCC(=O)NC1=O` (stereo not drawn) [3-(2-methyl-4-oxo-8-trifluoromethyl-4H-quinazolin-3-yl)-piperidine-2,6-dione] it is 351 to 353 °C.
On the same count and under the same terms, the figure for `Cc1nc2c(O)cccc2c(=O)n1C1CCC(=O)NC1=O` (stereo not drawn) [3-(8-hydroxy-2-methyl-4-oxo-4H-quinazolin-3-yl)-piperidine-2,6-dione] is 266 to 268 °C; for `Cc1cccc2c(=O)n(C3CCC(=O)NC3=O)c(C)nc12` (stereo not drawn) [3-(2,8-dimethyl-4-oxo-4H-quinazolin-3-yl)-piperidine-2,6-dione] it is 296 to 298 °C.
`Cc1ccc2c(=O)n(C3CCC(=O)NC3=O)c(C)nc2c1` (stereo not drawn) [3-(2,7-dimethyl-4-oxo-4H-quinazolin-3-yl)-piperidine-2,6-dione]: the melting point was 305 °C (dec.).
Still for that read-out and setting: the result for `Cc1ccc2nc(C)n(C3CCC(=O)NC3=O)c(=O)c2c1` (stereo not drawn) [Example 5.1, 3-(2,6-dimethyl-4-oxo-4H-quinazolin-3-yl)-piperidine-2,6-dione] reads 270 to 272 °C.
Same read-out and setting: the result for `O=C1CCC(n2cnc3cc(F)ccc3c2=O)C(=O)N1` (stereo not drawn) [Example 5.33, 3-(7-fluoro-4-oxo-4H-quinazolin-3-yl)-piperidine-2,6-dione] reads 296 to 298 °C.
Consider `Cc1nc2ccc(Cl)cc2c(=O)n1C1CCC(=O)NC1=O` (stereo not drawn) [Example 5.4, 3-(6-chloro-2-methyl-4-oxo-4H-quinazolin-3-yl)-piperidine-2,6-dione], for which the melting point was in the range of 276 to 278 °C.
The same measure, in the same setting: the result for `Cc1nc2c(Cl)cccc2c(=O)n1C1CCC(=O)NC1=O` (stereo not drawn) [Example 5.40, 3-(8-chloro-2-methyl-4-oxo-4H-quinazolin-3-yl)-piperidine-2,6-dione] reads 290 to 292 °C.
Same read-out and setting: the figure for `Cc1cccc2c(=O)n(C3CCC(=O)NC3=O)cnc12` (stereo not drawn) [Example 5.44, 3-(8-methyl-4-oxo-4H-quinazolin-3-yl)-piperidine-2,6-dione] is 290 to 292 °C.
The compound `Cc1nc2c(Cl)cc(Cl)cc2c(=O)n1C1CCC(=O)NC1=O` (stereo not drawn) [Example 5.46, 3-(6,8-dichloro-2-methyl-4-oxo-4H-quinazolin-3-yl)-piperidine-2,6-dione] showed a melting point of 238 to 240 °C.
In the case of `Cc1nc2ccc(CNC(=O)c3ccc(Cl)c(Cl)c3)cc2c(=O)n1C1CCC(=O)NC1=O` (stereo not drawn) [3,4-dichloro-N-[3-(2,6-dioxo-piperidin-3-yl)-2-methyl-4-oxo-3,4-dihydro-quinazolin-6-ylmethyl]-benzamide], in the data set with Namalwa AG4 cells, the IC50 lay in the range of 10 to 5500 nM.
Regarding `Cc1nc2cc(C(F)(F)F)ccc2c(=O)n1C1CCC(=O)NC1=O` (stereo not drawn) [Example 5.32, 3-(2-methyl-4-oxo-7-trifluoromethyl-4H-quinazolin-3-yl)-piperidine-2,6-dione], the melting point was in the range of 277 to 279 °C.
The same measure, in the same setting: the result for `COc1cc2nc(C)n(C3CCC(=O)NC3=O)c(=O)c2cc1OC` (stereo not drawn) [3-(6,7-dimethoxy-2-methyl-4-oxo-4H-quinazolin-3-yl)-piperidine-2,6-dione] reads 325 °C (dec.).
